According to patent US9513294B2, “Megastokes amino-triazolyl-BODIPY compounds and applications to live neuron staining and human serum albumin FA1 drug site probing” (National University of Singapore, priority 2012, dated 2016):
Entries after “also recorded” stand apart in the source; their conditions may differ.

Columns and labels:
[1] = target: HSA (fatty-acid free) (Homo sapiens, UniProt P02768); assay: Competition with site-selective HSA-binding drugs; conditions: from competition assays
Experimental: HSA (fatty-acid free) (0.34 mg/mL, 5 μM) was preincubated for 2 h in phosphate buffer with different concentrations of the drugs (up to 200 μM) before BDC-9 (10 μM) was added. F is the fluorescence intensity at the indicated drug concentration and F0 is the fluorescence intensity with no drug added; λexc.: 460 nm, λem.: 575 nm; values are represented as means and error bars as standard deviations (n=3).
The binding properties of BDC-9 were studied. HSA consists of at least nine binding sites (34-38), amongst which fatty acid (FA) sites 1, 3 and 4 (Sudlow Site II), 5, 6 and 7 (Sudlow Site I) are known to have affinity for drug compounds (31,39-44). […] To verify specific binding and determine the binding site(s) of BDC-9 in HSA, competition assays using drugs binding to the respective sites (e.g. hemin (FA1 site)(71,72), dansyl-L-norvaline (FA3/4 sites) (73), propofol (FA3/4 and FA5 sites) (35), ibuprofen (FA3/4 and FA6 sites) (74) and warfarin (FA7 site) (74) were performed (75).
There have been several reports of fluorescent dyes binding to FA3/4 (48,49,73), FA6 (51) and FA7 (54,55,76) sites. The present invention represents the first known experimentally proven fluorescent dye binding to the FA1 site (76), in which binding is not dependent on contact with bound lipid (72). BDC-9 is therefore a valuable probe for examining the heme region on HSA.

[2] = target: T1, HSA (Homo sapiens, UniProt P02768); assay: Quantification of HSA in spiked urine samples; conditions: urine spiked with HSA up to 1 mg/mL
Experimental: HSA (0 to 1 mg/mL) was added to 10% urine from healthy individuals in phosphate buffer (pH=7.3). BDC-9 was added at 10 μM concentration; λexc.: 460 nm, λem.: 575 nm; values represented as means (n=3) and error bars as standard deviations; linear regression: R^2=0.998.
In order to examine the selectivity and sensitivity of BDC-9 in complex matrices, BDC-9 was utilized to quantify the amount of HSA in urine samples. Microalbuminuria, which involves an albumin excretion rate of 15 to 40 μg/mL (80, 81), is a well-established cardiovascular risk marker and an indication of liver and renal disease (32,33). The fluorescence response of BDC-9 was analyzed in urine that was spiked with different amounts of HSA, up to 1 mg/mL.

[3] = Absorbance and fluorescence emission spectra (SpectraMax M2); format: physicochemical; conditions: for λmax Absorp. (nm): absorbance maximum; for λmax Emission (nm): fluorescence emission maximum
In short: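 Absorbance and emission maxima measured on a SpectraMax M2 spectrophotometer, which also gave quantum yield data; analysis in GraphPrism.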

[4] = target: T1, HSA; assay: Fluorescence response to serial dilutions of HSA; format: binding
Experimental: Values are represented as means (n=3).
Mixtures of BDC-9 with HSA were prepared in phosphate buffer (pH 7.3, 1% DMSO) at room temperature and fluorescence measurements were taken after incubation for 2 h unless otherwise stated.

[5] = Effect of solvent viscosity on fluorescence intensity (molecular rotor); format: physicochemical; conditions: 100 μM, rt, solvents of similar polarity
Experimental: The fluorescence spectra of compound (BDC-9) in different solvents of similar polarities but covering a range of viscosities were analyzed. […] Increased solvent viscosity reduces bond rotation at positions 3 and 5 of the BODIPY core, which, without being bound to theory, minimizes non-radiative energy loss and leads to higher quantum yields (24).

[6] = Quantum yield measurements versus Acridine Yellow in EtOH; format: physicochemical; conditions: for φ (%): quantum yield
In short: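 Fluorescence quantum yield is relative to Acridine Yellow in EtOH (Φ 0.47), with excitation at 460 nm. Integrated emission at 510–700 nm was corrected for absorbance at the excitation wavelength and for solvent refractive index.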

[7] = test system: serum albumins from rat (RSA), porcine (PSA), rabbit (RbSA), sheep (SSA) and bovine (BSA); assay: Species selectivity: fluorescence response to serum albumins of different species; format: binding; conditions: 10 μM, albumins 1.2×10^−4 to 4 mg/mL
Experimental: FIGS. 7a and 7b show species selectivity of BDC-9. […] FIG. 7b is a photographic image of BDC-9 (10 μM) mixed with respective albumins. Irradiation with a handheld UV lamp at 365 nm.
The selectivity of BDC-9 towards serum albumins from different species was investigated. Serum albumins represent a family of proteins with a high degree of similarity in their primary sequence across various species (˜75% homology) (34,39,40,62). […] The fluorescence response of BDC-9 was evaluated against serial concentrations of serum albumins from rat (RSA), porcine (PSA), rabbit (RbSA), sheep (SSA) and bovine (BSA).

[8] = target: T1, HSA; assay: Determination of dissociation constant with HSA (fluorescence titration, one-site model); conditions: HSA 10 μM, one-site specific binding model
Experimental: HSA (10 μM) was titrated against serial concentrations of BDC-9 (0.47 to 60 μM) and the fluorescence intensities were measured at 575 nm (λexc=460 nm). The fluorescence intensity of bound BDC-9 at each concentration was determined using the equation:
[formula] where F and F0 are the fluorescence intensities of a given concentration of BDC-9 with and without HSA respectively. Fsat is the fluorescence intensity at the same concentration of BDC-9 when fully bound.

[9] = target: human serum albumin (Homo sapiens, UniProt P02768); assay: In vitro fluorescence screening against 84 biologically relevant analytes / 16 proteins; format: binding; conditions: 10 μM, 10 mM HEPES pH 7.4, 1% DMSO
Experimental: F0 is the fluorescence intensity of BDC-9 in HEPES buffer. Values are represented as means (n=4).
Amino-triazolyl-BODIPYs (10 μM) were screened in 10 mM HEPES buffer, pH 7.4, containing 1% DMSO. Fluorescence intensities were measured using a SpectraMax M2 platereader in 384-well plates. Excitation was provided at each compound's excitation range, and emission spectrum was obtained starting from at least 30 nm beyond the excitation wavelength. All the analytes were tested at four serial concentrations.
The fluorescent response of BDC, BDCAC and BDCCA was examined against 84 biologically relevant analytes that were categorized into nine different sets (i.e. pH standards, viscous solutions, genetic macromolecules, peptides, metal ions, redox molecules, nucleic acids, proteins and other metabolites).

[10] = test system: mixed primary neural cell populations; assay: Flow cytometry analysis and FACS sorting of mixed primary neural cells; format: cell-based, mouse
Source text: Unstained controls are shown in each spectrum from about 0 to about 1 G.
To further analyze this population of compound positive cells, the two populations (Bright and Dim) were sorted out cell re-culture and RNA extraction for gene analysis.

[11] = test system: neurons; assay: Time lapse imaging of in vitro neuronal development; format: cell-based, mouse; conditions: 500 nM
Source text: The survival of the cells and dye signal is critical in time lapse studies to analyze neuronal development and interaction with other neural cells.

[12] = test system: primary neurons; assay: Neuron viability, MTS cell cytotoxicity assay (Promega); format: cell-based, mouse; conditions: 24 hour incubation, 500 nM or higher
Experimental: Primary neurons were isolated from P1-3 mouse pups by preferential adherence to poly-D-lysine coating. They were left to mature for 5 days before addition of compound at the stipulated concentrations for 24 h. The MTS assay (Promega) was used to assess viability according to manufacturer's instructions.
For long term tracking and downstream functional studies, it is critical that the compound is not cytotoxic towards the cells and that cells remain viable after staining.

[13] = test system: live neurons; assay: Live cell compound staining and immunostaining of mixed primary neural cell cultures; format: cell-based, mouse; conditions: 500 nM, brain cell preparations from P1-P3 mice
Experimental: Cells were stained with 500 nM of MKHA101-3 (Green) and imaged at 10× magnification before fixing with 4% PFA. They were then permeabilized with 0.1% Triton-X and immunostained with GFAP (Red) and neurons (Green).
Cells were stained with 500 nM of NeuO (Green) and imaged at 10× magnification before fixing with 4% PFA. They were then permeabilized with 0.1% Triton-X and immunostained with β-III-tubulin (Tuji, Yellow), GFAP (Red) and O4).
Using the heterogeneous brain cell preparations from P1-P3 mice, cells that were compound positive were also found to be β-III-tubulin positive (FIG. 17).
Using the heterogeneous brain cell preparations from P1-P3 mice, cells that were compound positive were also found to be β-III-tubulin (Tuji) positive (FIG. 18a). […] NeuO appears to stain all neurons regardless of subtype (FIG. 18b).

[14] = test system: primary neurons; assay: Primary brain cell screening platform (neurons, astrocytes, microglia); format: cell-based; conditions: 500 nM, 1 hour
Source text: Esterification to MKAA (and possibly other esters) improves permeability into intact live cells while maintaining staining specificity (FIG. 12). The acetylated MKAA undergoes rapid hydrolysis by cellular esterases after crossing the live cell membrane generates the active MKHA compound responsible for the fluorescence response. FIGS. 13 and 14 show the structures of example MKHA compounds that have been synthesized and tested for primary neuron staining.
For neuron probe discovery, a primary brain cell screening platform was utilized, which involved the use of primary neurons, astrocytes and microglia isolated by differential adhesion methods. These cells were prepared alongside one another in 384-well microplates and incubated in duplicate with 5,000 DOFL compounds at 500 nM concentrations for 1 hour at 4-5 days post-isolation (FIG. 15). […] The compound MKHA374-48 is alternately referred to herein as NeuO (pronounced “neo”) for Neuron Orange.

T1 sequence (P02768 25-609): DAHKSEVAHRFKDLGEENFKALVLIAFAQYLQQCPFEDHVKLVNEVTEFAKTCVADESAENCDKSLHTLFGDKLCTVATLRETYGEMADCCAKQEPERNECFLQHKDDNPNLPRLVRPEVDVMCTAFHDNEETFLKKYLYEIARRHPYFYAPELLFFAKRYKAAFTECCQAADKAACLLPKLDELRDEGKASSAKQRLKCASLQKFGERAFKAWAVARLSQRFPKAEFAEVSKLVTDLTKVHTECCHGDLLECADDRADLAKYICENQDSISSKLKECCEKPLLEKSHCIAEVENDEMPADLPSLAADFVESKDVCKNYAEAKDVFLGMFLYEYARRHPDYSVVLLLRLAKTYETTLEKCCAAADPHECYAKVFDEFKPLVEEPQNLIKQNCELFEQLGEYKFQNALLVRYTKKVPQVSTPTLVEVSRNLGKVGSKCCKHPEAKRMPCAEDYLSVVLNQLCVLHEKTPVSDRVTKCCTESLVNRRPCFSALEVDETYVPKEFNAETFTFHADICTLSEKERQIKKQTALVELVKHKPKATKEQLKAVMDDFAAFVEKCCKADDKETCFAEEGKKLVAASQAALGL
Sequence of HSA (fatty-acid free) (P02768 25-609): as above
Sequence of human serum albumin (P02768 25-609): as above

Nc1ccc(C2=C3C=CC(N4CCCCC4)=[N+]3[B-](F)(F)n3c2ccc3-n2cc(-c3ccccc3)nn2)cc1 [BDC-9, 10-(4-aminophenyl)-5,5-difluoro-7-(4-phenyl-1H-1,2,3-triazol-1-yl)-3-(piperidin-1-yl)-5H-dipyrrolo[1,2-c:2′,1′-f][1,3,2]diazaborinin-4-ium-5-uide]
binding site on HSA [1]: binding to the FA1 site (heme site) of HSA
correlation between fluorescence response and amount of HSA in urine [2]: excellent linear correlation
λmax Absorp. ([3]; BDC library, Table 2): 472 nm
λmax Emission ([3]; BDC library, Table 2): 581 nm
increase in fluorescence upon binding to HSA ([4]; 10 μM, phosphate buffer, λexc 460 nm): 220 fold
limit of detection of HSA ([4]; S/N=3): 0.3 µg/mL
fluorescence intensity versus solvent viscosity [5]: systematically increased in more viscous alcohols; also recorded: strong correlation between fluorescence intensity and viscosity
φ (quantum yield) ([6]; BDC library, Table 2, excitation 460 nm): 0.22%
selectivity towards HSA versus serum albumins from other species [7]: marked selectivity towards HSA with marginal response on the other species
Kd [8]: 12.7 ± 0.4 µM
selectivity of fluorescence response among proteins and analytes [9]: remarkable selectivity towards human serum albumin

CCCC(C)c1cn(-c2ccc3n2[B-](F)(F)[N+]2=C(NCc4ccccc4C)C=CC2=C3c2ccc(NC(=O)CCl)cc2)nn1 (stereo not shown) [MKCA101-3]
λmax Absorp. (nm) ([3]; MKCA compound library): 464 nm
λmax Emission (nm) ([3]; MKCA compound library): 563 nm
φ (%) ([6]; MKCA compound library): 31.22%
flow cytometry profile of stained mixed neural cell populations [10]: neuronal population segregating from the main population

CC(C)Cc1cn(-c2ccc3n2[B-](F)(F)[N+]2=C(NCc4cc(F)cc(F)c4)C=CC2=C3c2ccc(NC(=O)CCl)cc2)nn1 [MKCA412-43]
λmax Absorp. (nm) ([3]; MKCA compound library): 468 nm
λmax Emission (nm) ([3]; MKCA compound library): 563 nm
φ (%) ([6]; MKCA compound library): 37.83%

CCCc1cn(-c2ccc3n2[B-](F)(F)[N+]2=C(NCc4cc(F)cc(F)c4)C=CC2=C3c2ccc(NC(=O)CCl)cc2)nn1 [MKCA412-48]
λmax Absorp. (nm) ([3]; MKCA compound library): 466 nm
λmax Emission (nm) ([3]; MKCA compound library): 561 nm
φ (%) ([6]; MKCA compound library): 36.09%

CCCCCC(O)c1cn(-c2ccc3n2[B-](F)(F)[N+]2=C(NCc4cc(F)cc(F)c4)C=CC2=C3c2ccc(NC(=O)CCl)cc2)nn1 (stereo not shown) [MKCA412-69]
λmax Absorp. (nm) ([3]; MKCA compound library): 465 nm
λmax Emission (nm) ([3]; MKCA compound library): 562 nm
φ (%) ([6]; MKCA compound library): 30.05%

O=C(CCl)Nc1ccc(C2=C3C=CC(NCc4cc(F)cc(F)c4)=[N+]3[B-](F)(F)n3c2ccc3-n2cc(CO)nn2)cc1 [MKCA412-70]
λmax Absorp. (nm) ([3]; MKCA compound library): 464 nm
λmax Emission (nm) ([3]; MKCA compound library): 562 nm
φ (%) ([6]; MKCA compound library): 6.28%

CCCc1cn(C2=[N+]3C(=C(c4ccc(NC(=O)CO)cc4)c4ccc(NCc5ccccc5)n4[B-]3(F)F)C=C2)nn1 [MKHA374-48, 7-(benzylamino)-5,5-difluoro-10-(4-(2-hydroxyacetamido)phenyl)-3-(4-propyl-1H-1,2,3-triazol-1-yl)-5H-dipyrrolo[1,2-c:2′,1′-][1,3,2]diazaborinin-4-ium-5-uide]
absorbance λmax ([3]; FIG. 2 normalized spectra): 468 nm
emission λmax ([3]; FIG. 2 normalized spectra): 557 nm
λmax Absorp. (nm) ([3]; MKHA compounds): 468 nm
λmax Emission (nm) ([3]; MKHA compounds): 557 nm
φ (%) ([6]; MKHA compounds): 0.3684%
time lapse imaging of stained neurons [11]: Bright NeuO stained neurons can be seen migrating from the interior of the sphere
effect on cell viability [12]: did not affect cell viability significantly
staining specificity for neurons over other neural cells [13]: stains the cell bodies and dendrites specifically over other neural cells
fluorescence response / selectivity towards primary neurons in screening [14]: superior selectivity towards live neurons compared to the original MKHA101-3
flow cytometry profile of stained mixed neural cell populations [10]: neuronal population segregating from the main population
